From ChEMBL document CHEMBL1136042, “Design, synthesis, and neuraminidase inhibitory activity of GS-4071 analogues that utilize a novel hydrophobic paradigm” (Bioorg Med Chem Lett, 2002)

Test: The compound was tested for its inhibition against Neuraminidase of the influenza RNA virus
For C=CC[C@H]1CC(C(=O)O)=C[C@@H](OC(C)C)[C@@H]1NC(C)=O, the Ki was 1100 nM.
In the case of CC(=O)N[C@@H]1[C@@H](CCO)CC(C(=O)O)=C[C@H]1OC(C)C, the Ki is reported as 4100 nM.
C=C[C@H]1CC(C(=O)O)=C[C@@H](OC(C)C)[C@@H]1NC(C)=O gave a Ki of 45 nM.
With C=CC[C@@H]1CC(C(=O)O)=C[C@@H](OC(C)C)[C@@H]1NC(C)=O the Ki was 14000 nM.
Work on C=C[C@@H]1CC(C(=O)O)=C[C@@H](OC(C)C)[C@@H]1NC(C)=O yielded a Ki of 69000 nM.
CCO[C@@H]1C=C(C(=O)O)C[C@H](N)[C@H]1NC(C)=O gave a Ki of 180 nM.
For C=CC[C@H]1CC(C(=O)O)=C[C@@H](OC(CC)CC)[C@@H]1NC(C)=O, the Ki was 1300 nM.
